US10940118B2, “Nanoparticles and methods of producing the same” (THE BOARD OF TRUSTEES OF THE UNIVERSITY OF ILLINOIS, priority 2013, dated 2021)

What was measured:
ICR mice [1] = assay: 52° C. warm-water tail-flick test, acute morphine tolerance; format: in vivo; conditions: oral administration following subcutaneous injection of morphine
Procedure: Basal nociception and morphine-induced antinociception were studied using the 52° C. warm-water tail-flick test. In brief, mice were held over the water bath and one third of the distal portion of the tail was immersed into the water. The latency to a quick tail-flick response was recorded as a base-line measurement. Any mouse not responding within 5 sec was excluded from further experiment. To prevent tissue damage, a cut-off time of 12 sec was applied. Morphine-induced antinociception was evaluated 30 min after the injection of a testing dose of morphine (10 mg/kg s.c.), and expressed as the percentage of maximal possible effect (% MPE) according to the following formula: % MPE=100×(postdrug latency−predrug latency)/(cut off−predrug latency)
To induce acute tolerance and dependence, separate groups of three ICR mice (20-25 g) were treated with a large dose of morphine (100 mg/kg s.c.). Maximal morphine tolerance and dependence peaked at approximately 4 to 6 h. Mice in the control group received an equal volume of saline. Tolerance to opioids was assessed 4.5 h later by monitoring the antinociceptive effect produced by a test dose of morphine (10 mg/kg, s.c.). The presence of opioid tolerance was signified by a significant reduction of antinociceptive effect. […] Mice were immediately placed inside glass cylinders, and naloxone-induced vertical jumps were recorded for 15 min. […]

ICR mice [2] = assay: Hot plate test, acute morphine tolerance; format: in vivo; conditions: oral administration following subcutaneous injection of morphine
Procedure: For assessment of response latencies to thermal stimulus in mice, a Cold/Hot Plate Analgesia Meter (Ugo Basile, Comerio, Italy) was used. In this study, mice were placed on a hot plate that was thermostatically maintained at 55±1° C. The nociceptive response was evaluated as the latency to the first licking or lifting of the rear paws or escape jumping. Mice were removed from the hot plate immediately after displaying the response and a cut-off time of 30 sec was set to prevent tissue damage. The anti-nociceptive effect was measured using the same percentage of maximal possible effect (% MPE) as above.
To induce acute tolerance and dependence, separate groups of three ICR mice (20-25 g) were treated with a large dose of morphine (100 mg/kg s.c.). Maximal morphine tolerance and dependence peaked at approximately 4 to 6 h. Mice in the control group received an equal volume of saline. Tolerance to opioids was assessed 4.5 h later by monitoring the antinociceptive effect produced by a test dose of morphine (10 mg/kg, s.c.). The presence of opioid tolerance was signified by a significant reduction of antinociceptive effect. To examine dependence on opioids, mice were challenged with naloxone (10 mg/kg i.p.) 5h after the administration of morphine (100 mg/kg s.c.). Mice were immediately placed inside glass cylinders, and naloxone-induced vertical jumps were recorded for 15 min. […]

COc1cc(C=CC(=O)CC(=O)C=Cc2ccc(O)c(OC)c2)ccc1O [unformulated curcumin, 1,7-bis-(4-hydroxy-3-methoxyphenyl)-1,6-heptadiene-3,5-dione]
Analgesia in tail-flick test (ICR mice [1]): minimal effect | Analgesia in hot plate test (ICR mice [2]): minimal effect
